{"source": "patent US9062124B2", "about": "“GIP-based mixed agonists for treatment of metabolic disorders and obesity” (priority 2008, dated 2015)", "format_in_all_cases": "cell-based", "key": {"[1]": {"biological_target": "T1, glucagon receptor (Homo sapiens, UniProt P47871)", "T1 construct": "expressed in transfected cells; host or cells: HEK293", "T1 sequence (P47871 26-477)": "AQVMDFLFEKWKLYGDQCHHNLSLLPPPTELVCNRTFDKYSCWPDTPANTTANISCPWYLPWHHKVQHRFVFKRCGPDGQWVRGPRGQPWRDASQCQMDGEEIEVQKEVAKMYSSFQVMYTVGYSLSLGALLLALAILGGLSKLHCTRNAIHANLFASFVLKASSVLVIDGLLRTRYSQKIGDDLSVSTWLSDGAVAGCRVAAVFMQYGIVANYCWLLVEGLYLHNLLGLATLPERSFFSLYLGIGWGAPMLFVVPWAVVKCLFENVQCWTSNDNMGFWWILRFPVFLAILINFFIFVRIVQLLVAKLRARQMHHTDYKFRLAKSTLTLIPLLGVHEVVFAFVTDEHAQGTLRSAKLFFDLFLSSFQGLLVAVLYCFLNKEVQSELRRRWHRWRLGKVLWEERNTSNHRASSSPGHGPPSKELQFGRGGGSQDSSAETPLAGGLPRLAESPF", "assay": "cAMP synthesis functional assay (firefly luciferase reporter in HEK293 cells), glucagon receptor"}, "[2]": {"biological_target": "T2, GIP receptor (Homo sapiens, UniProt P48546)", "T2 construct": "expressed in transfected cells; host or cells: HEK293", "T2 sequence (P48546 22-466)": "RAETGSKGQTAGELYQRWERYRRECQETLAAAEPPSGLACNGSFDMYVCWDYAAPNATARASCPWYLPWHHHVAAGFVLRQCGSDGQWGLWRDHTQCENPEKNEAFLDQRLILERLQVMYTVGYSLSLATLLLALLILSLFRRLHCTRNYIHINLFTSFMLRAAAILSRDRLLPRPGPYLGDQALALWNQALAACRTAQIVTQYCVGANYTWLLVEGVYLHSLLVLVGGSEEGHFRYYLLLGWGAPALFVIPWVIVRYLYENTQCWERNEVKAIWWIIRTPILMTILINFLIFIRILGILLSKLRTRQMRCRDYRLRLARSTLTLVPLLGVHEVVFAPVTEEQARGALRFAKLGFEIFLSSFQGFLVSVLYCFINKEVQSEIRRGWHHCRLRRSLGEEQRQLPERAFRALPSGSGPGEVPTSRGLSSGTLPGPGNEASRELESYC", "assay": "cAMP synthesis functional assay (firefly luciferase reporter in HEK293 cells), GIP receptor"}, "[3]": {"biological_target": "T3, GLP-1 receptor (Homo sapiens, UniProt P43220)", "T3 construct": "expressed in transfected cells; host or cells: HEK293", "T3 sequence (P43220 24-463, species assumed)": "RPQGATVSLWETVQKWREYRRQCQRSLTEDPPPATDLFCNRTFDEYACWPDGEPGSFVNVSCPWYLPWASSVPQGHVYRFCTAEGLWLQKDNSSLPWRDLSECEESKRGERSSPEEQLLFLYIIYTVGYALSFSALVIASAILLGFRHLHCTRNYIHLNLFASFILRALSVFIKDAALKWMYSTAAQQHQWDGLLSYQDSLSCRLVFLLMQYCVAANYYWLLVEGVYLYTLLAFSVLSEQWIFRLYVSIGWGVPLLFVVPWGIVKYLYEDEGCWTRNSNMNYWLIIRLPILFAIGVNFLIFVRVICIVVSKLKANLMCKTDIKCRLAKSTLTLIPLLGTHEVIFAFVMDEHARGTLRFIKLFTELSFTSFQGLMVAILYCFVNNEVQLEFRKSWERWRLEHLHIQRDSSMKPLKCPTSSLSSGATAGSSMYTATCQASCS", "assay": "cAMP synthesis functional assay (firefly luciferase reporter in HEK293 cells), GLP-1 receptor"}, "[4]": {"conditions": "relative to the standard (Std.) EC50 of the same run"}, "[5]": {"conditions": "GIP Receptor EC50, cAMP luciferase reporter assay as in Example 16"}, "[6]": {"conditions": "GLP-1 Receptor EC50, cAMP luciferase reporter assay as in Example 16"}, "[7]": {"conditions": "Table 1, relative to the native hormone of the indicated receptor"}}, "note": "Where a SMILES comes first, the peptide text is derived from it. Bridges are numbered along the chain shown (N, C = ends). [ ]: non-standard residue; d: D form. Aib = CC(C)(N)C(=O)O", "data": [{"smiles": "CC[C@H](C)[C@H](NC(=O)[C@H](CO)NC(=O)[C@H](CCCCN)NC(=O)[C@H](CC(=O)O)NC(=O)[C@H](CO)NC(=O)[C@@H](NC(=O)[C@H](Cc1ccccc1)NC(=O)[C@@H](NC(=O)CNC(=O)[C@H](CCC(=O)O)NC(=O)C(C)(C)NC(=O)[C@@H](N)Cc1ccc(O)cc1)[C@@H](C)O)[C@@H](C)O)C(=O)N[C@@H](Cc1ccc(O)cc1)C(=O)N[C@@H](CC(C)C)C(=O)N[C@@H](CC(=O)O)C(=O)N[C@@H](CCCCN)C(=O)N[C@@H](CCC(N)=O)C(=O)N[C@@H](C)C(=O)N[C@@H](C)C(=O)NC(C)(C)C(=O)N[C@@H](CCC(=O)O)C(=O)N[C@@H](Cc1ccccc1)C(=O)N[C@H](C(=O)N[C@@H](CC(N)=O)C(=O)N[C@@H](Cc1c[nH]c2ccccc12)C(=O)N[C@@H](CC(C)C)C(=O)N[C@@H](CC(C)C)C(=O)N[C@@H](C)C(=O)NCC(=O)NCC(=O)N1CCC[C@H]1C(=O)N[C@@H](CO)C(=O)N[C@@H](CO)C(=O)NCC(=O)N[C@@H](C)C(=O)N1CCC[C@H]1C(=O)N1CCC[C@H]1C(=O)N1CCC[C@H]1C(=O)N[C@@H](CO)C(N)=O)C(C)C", "note": "[mt-272] (H-Y[Aib]EGTFTSDKSIYLDKQAA[Aib]EFVNWLLAGGPSSGAPPPS-NH2; N-terminus assumed)", "values": [{"measurement": "EC50", "setting": "[1]; Glucagon Receptor EC50, cAMP luciferase reporter assay as in Example 16", "result": 1060, "unit": "nM"}, {"measurement": "Glucagon Receptor relative activity", "setting": "[1]; [4]", "result": 0.02, "unit": "%"}, {"measurement": "EC50", "setting": "[2]; [5]", "result": 0.0241, "unit": "nM"}, {"measurement": "GIP Receptor relative activity", "setting": "[2]; [4]", "result": 33.20, "unit": "%"}, {"measurement": "EC50", "setting": "[3]; [6]", "result": 1.23, "unit": "nM"}, {"measurement": "GLP-1 Receptor relative activity", "setting": "[3]; [4]", "result": 1.60, "unit": "%"}]}, {"smiles": "CC[C@H](C)[C@H](NC(=O)[C@H](Cc1ccccc1)NC(=O)[C@H](CC(=O)O)NC(=O)[C@@H]1CCCCNC(=O)CC[C@H](NC(=O)[C@H](CC(=O)O)NC(=O)[C@H](CC(C)C)NC(=O)[C@H](Cc2ccc(O)cc2)NC(=O)[C@H](CCCCN)NC(=O)[C@H](CO)NC(=O)[C@H](Cc2ccc(O)cc2)NC(=O)[C@H](CC(=O)O)NC(=O)[C@H](CO)NC(=O)[C@@H](NC(=O)[C@H](Cc2ccccc2)NC(=O)[C@@H](NC(=O)CNC(=O)[C@H](CCC(N)=O)NC(=O)[C@H](CO)NC(=O)[C@@H](N)Cc2c[nH]cn2)[C@@H](C)O)[C@@H](C)O)C(=O)N[C@@H]([C@@H](C)CC)C(=O)N[C@@H](Cc2c[nH]cn2)C(=O)N[C@@H](CCC(N)=O)C(=O)N1)C(=O)N[C@@H](C)C(=O)N[C@@H](Cc1c[nH]c2ccccc12)C(=O)N[C@@H](CC(C)C)C(=O)N[C@@H](CCSC)C(=O)N[C@@H](CC(N)=O)C(=O)NCC(=O)NCC(=O)N1CCC[C@H]1C(=O)N[C@@H](CO)C(=O)N[C@@H](CO)C(=O)NCC(=O)N[C@@H](C)C(=O)N1CCC[C@H]1C(=O)N1CCC[C@H]1C(=O)N1CCC[C@H]1C(=O)N[C@@H](CO)C(N)=O", "note": "[mt-128] (H-HSQGTFTSDYSKYLDEIHQKDFIAWLMNGGPSSGAPPPS-NH2; lactam 16-20; N-terminus assumed)", "values": [{"measurement": "Glucagon Receptor relative activity", "setting": "[1]; [7]", "result": 11.13, "unit": "%"}, {"measurement": "EC50", "setting": "[2]; GIP Receptor EC50, nM, Table 1", "result": 14.6, "unit": "nM"}, {"measurement": "GIP Receptor relative activity", "setting": "[2]; [7]", "result": 0.42, "unit": "%"}, {"measurement": "GLP-1 Receptor relative activity", "setting": "[3]; [7]", "result": 33.33, "unit": "%"}]}, {"smiles": "CC[C@H](C)[C@H](NC(=O)[C@H](CO)NC(=O)[C@H](Cc1ccc(O)cc1)NC(=O)[C@H](CC(=O)O)NC(=O)[C@H](CO)NC(=O)[C@@H](NC(=O)[C@H](Cc1ccccc1)NC(=O)[C@@H](NC(=O)CNC(=O)[C@H](CCC(=O)O)NC(=O)C(C)(C)NC(=O)[C@@H](N)Cc1ccc(O)cc1)[C@@H](C)O)[C@@H](C)O)C(=O)N[C@@H](Cc1ccc(O)cc1)C(=O)N[C@@H](CC(C)C)C(=O)N[C@@H](CC(=O)O)C(=O)N[C@@H](CCCCN)C(=O)N[C@@H](CCC(N)=O)C(=O)N[C@@H](C)C(=O)N[C@@H](C)C(=O)NC(C)(C)C(=O)N[C@@H](CCC(=O)O)C(=O)N[C@@H](Cc1ccccc1)C(=O)N[C@H](C(=O)N[C@@H](CC(N)=O)C(=O)N[C@@H](Cc1c[nH]c2ccccc12)C(=O)N[C@@H](CC(C)C)C(=O)N[C@@H](CC(C)C)C(=O)N[C@@H](C)C(=O)NCC(=O)NCC(=O)N1CCC[C@H]1C(=O)N[C@@H](CO)C(=O)N[C@@H](CO)C(=O)NCC(=O)N[C@@H](C)C(=O)N1CCC[C@H]1C(=O)N1CCC[C@H]1C(=O)N1CCC[C@H]1C(=O)N[C@@H](CO)C(=O)N[C@@H](CS)C(N)=O)C(C)C", "note": "[mt-256]", "values": [{"measurement": "Glucagon Receptor relative activity", "setting": "[1]; [4]", "result": 0.12, "unit": "%"}, {"measurement": "EC50", "setting": "[2]; [5]", "result": 0.0034, "unit": "nM"}, {"measurement": "GIP Receptor relative activity", "setting": "[2]; [4]", "result": 282.35, "unit": "%"}, {"measurement": "EC50", "setting": "[3]; [6]", "result": 0.0124, "unit": "nM"}, {"measurement": "GLP-1 Receptor relative activity", "setting": "[3]; [4]", "result": 95.97, "unit": "%"}]}, {"smiles": "CC[C@H](C)[C@@H]1NC(=O)[C@@H](NC(=O)[C@H](CC(=O)O)NC(=O)[C@H](CC(C)C)NC(=O)[C@H](Cc2ccc(O)cc2)NC(=O)[C@H](CCCCN)NC(=O)[C@H](CO)NC(=O)[C@H](Cc2ccc(O)cc2)NC(=O)[C@H](CC(=O)O)NC(=O)[C@H](CO)NC(=O)[C@@H](NC(=O)[C@H](Cc2ccccc2)NC(=O)[C@@H](NC(=O)CNC(=O)[C@H](CCC(N)=O)NC(=O)[C@H](CO)NC(=O)[C@@H](N)Cc2c[nH]cn2)[C@@H](C)O)[C@@H](C)O)CCC(=O)NCCCC[C@@H](C(=O)N[C@@H](CC(=O)O)C(=O)N[C@@H](Cc2ccccc2)C(=O)N[C@H](C(=O)N[C@@H](CC(N)=O)C(=O)N[C@@H](Cc2c[nH]c3ccccc23)C(=O)N[C@@H](CC(C)C)C(=O)N[C@@H](CC(C)C)C(=O)N[C@@H](C)C(=O)NCC(=O)NCC(=O)N2CCC[C@H]2C(=O)N[C@@H](CO)C(=O)N[C@@H](CO)C(=O)NCC(=O)N[C@@H](C)C(=O)N2CCC[C@H]2C(=O)N2CCC[C@H]2C(=O)N2CCC[C@H]2C(=O)N[C@@H](CO)C(N)=O)C(C)C)NC(=O)[C@H](CCC(N)=O)NC(=O)[C@H](Cc2c[nH]cn2)NC1=O", "note": "[mt-115] (H-HSQGTFTSDYSKYLDEIHQKDFVNWLLAGGPSSGAPPPS-NH2; lactam 16-20; N-terminus assumed)", "values": [{"measurement": "Glucagon Receptor relative activity", "setting": "[1]; [7]", "result": 11.36, "unit": "%"}, {"measurement": "GIP Receptor relative activity", "setting": "[2]; [7]", "result": 1.31, "unit": "%"}, {"measurement": "GLP-1 Receptor relative activity", "setting": "[3]; [7]", "result": 20.00, "unit": "%"}]}, {"smiles": "CC[C@H](C)[C@H](NC(=O)[C@H](CO)NC(=O)[C@H](Cc1ccc(O)cc1)NC(=O)[C@H](CC(=O)O)NC(=O)[C@H](CO)NC(=O)[C@@H](NC(=O)[C@H](Cc1ccccc1)NC(=O)[C@@H](NC(=O)CNC(=O)[C@H](CCC(N)=O)NC(=O)[C@H](C)NC(=O)[C@@H](N)Cc1ccc(O)cc1)[C@@H](C)O)[C@@H](C)O)C(=O)N[C@@H](Cc1ccc(O)cc1)C(=O)N[C@@H](CCSC)C(=O)N[C@@H](CC(=O)O)C(=O)N[C@H]1CCC(=O)NCCCC[C@@H](C(=O)N[C@@H](CCC(=O)O)C(=O)N[C@@H](Cc2ccccc2)C(=O)N[C@H](C(=O)N[C@@H](CC(N)=O)C(=O)N[C@@H](Cc2c[nH]c3ccccc23)C(=O)N[C@@H](CC(C)C)C(=O)N[C@@H](CC(C)C)C(=O)N[C@@H](C)C(=O)NCC(=O)NCC(=O)N2CCC[C@H]2C(=O)N[C@@H](CO)C(=O)N[C@@H](CO)C(=O)NCC(=O)N[C@@H](C)C(=O)N2CCC[C@H]2C(=O)N2CCC[C@H]2C(=O)N2CCC[C@H]2C(=O)N[C@@H](CO)C(N)=O)C(C)C)NC(=O)[C@H](C)NC(=O)[C@H](C)NC(=O)[C@H](CCC(N)=O)NC1=O", "note": "[mt-144] (H-YAQGTFTSDYSIYMDEQAAKEFVNWLLAGGPSSGAPPPS-NH2; lactam 16-20; N-terminus assumed)", "values": [{"measurement": "Glucagon Receptor relative activity", "setting": "[1]; [7]", "result": 16.77, "unit": "%"}, {"measurement": "GIP Receptor relative activity", "setting": "[2]; [7]", "result": 18.54, "unit": "%"}, {"measurement": "EC50", "setting": "[3]; GLP-1 Receptor EC50, nM, Table 1", "result": 0.036, "unit": "nM"}, {"measurement": "GLP-1 Receptor relative activity", "setting": "[3]; [7]", "result": 141.67, "unit": "%"}]}]}
